The source of these data is US10357484B2, “Heterocyclic compound” (Takeda Pharmaceutical Company Limited, priority 2015, dated 2019).

What all share (assay type): biochemical
For assay [1], the target named is T1, HDAC6 enzyme (Homo sapiens, UniProt Q9UBN7).
T1 construct: transducing full length HDAC1 and HDAC6 genes into Sf-9 insect cells; GST; purchased SignalChem; host or cells: Sf-9 insect cells
T1 sequence (Q9UBN7 1-1215): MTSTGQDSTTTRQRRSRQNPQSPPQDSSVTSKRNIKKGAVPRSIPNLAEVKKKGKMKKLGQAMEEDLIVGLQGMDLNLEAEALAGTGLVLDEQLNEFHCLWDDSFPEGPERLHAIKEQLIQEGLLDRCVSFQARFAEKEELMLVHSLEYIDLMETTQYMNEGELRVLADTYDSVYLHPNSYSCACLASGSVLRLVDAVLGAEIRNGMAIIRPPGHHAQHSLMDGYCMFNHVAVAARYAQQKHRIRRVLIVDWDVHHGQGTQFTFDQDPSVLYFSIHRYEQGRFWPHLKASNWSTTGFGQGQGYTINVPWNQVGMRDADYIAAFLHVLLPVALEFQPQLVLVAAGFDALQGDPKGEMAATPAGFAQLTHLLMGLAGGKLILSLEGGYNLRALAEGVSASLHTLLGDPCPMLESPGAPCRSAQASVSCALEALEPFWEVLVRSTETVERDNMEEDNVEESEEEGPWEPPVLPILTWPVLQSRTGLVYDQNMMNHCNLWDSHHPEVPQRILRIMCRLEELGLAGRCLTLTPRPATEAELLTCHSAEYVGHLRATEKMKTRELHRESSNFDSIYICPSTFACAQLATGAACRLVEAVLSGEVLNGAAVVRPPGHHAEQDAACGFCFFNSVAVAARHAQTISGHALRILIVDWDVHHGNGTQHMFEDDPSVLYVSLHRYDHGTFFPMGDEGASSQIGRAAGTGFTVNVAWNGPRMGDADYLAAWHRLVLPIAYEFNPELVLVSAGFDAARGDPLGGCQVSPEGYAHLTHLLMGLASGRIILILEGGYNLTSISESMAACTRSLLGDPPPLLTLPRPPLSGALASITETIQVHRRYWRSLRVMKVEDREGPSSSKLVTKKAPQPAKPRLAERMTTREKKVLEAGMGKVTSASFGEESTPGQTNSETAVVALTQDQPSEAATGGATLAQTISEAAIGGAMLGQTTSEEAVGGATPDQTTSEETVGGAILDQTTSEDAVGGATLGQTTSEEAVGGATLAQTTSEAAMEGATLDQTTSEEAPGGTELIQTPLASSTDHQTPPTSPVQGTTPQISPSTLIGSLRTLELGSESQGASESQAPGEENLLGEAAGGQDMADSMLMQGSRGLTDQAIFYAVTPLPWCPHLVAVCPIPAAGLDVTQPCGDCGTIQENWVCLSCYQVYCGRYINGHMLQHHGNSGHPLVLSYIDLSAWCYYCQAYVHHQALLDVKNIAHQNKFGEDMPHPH
Description: HDAC6 enzyme inhibitory assay (HDAC-Glo I/II Assay kit). The settings on record: 1 μM test compound; wells without enzyme = 100% inhibition; read-out: HDAC6 inhibitory rate (%) (1 μM). The method, then:
(§1) HDAC1/6 Enzyme Inhibitory Assay
(§2) HDAC1 enzyme and HDAC6 enzyme each prepared by transducing full length HDAC1 and HDAC6 genes into Sf-9 insect cells and purifying by GST affinity column were purchased from SignalChem. Using these enzymes, HDAC1 and/or HDAC6 enzyme inhibitory activities of the compound of the present invention were evaluated. Enzymes were used after preserved at −70° C. HDAC1 or HDAC6 enzyme inhibitory activity of the compound of the present invention was measured using HDAC-Glo™ I/II Assay kit (Promega) according to the following experimental method. The test compound diluted with assay buffer (24 mM Tris-HCl (pH 7.5), 1 mM MgCl2, 0.35 mM KCl, 135 mM NaCl, 0.6 mM Glutathione, 0.01% Tween-20) was added to a 384-well plate by each 2 μL. Then, HDAC1 or HDAC6 enzyme solution diluted with assay buffer was added thereto by each 4 μL, and the plate was incubated at room temperature for 60 min. After incubated, HDAC substrate-Developer solution prepared according to Promega protocol attached to the assay kit was added to the 384-well plate by each 2 μL, and the enzyme reaction was started. After reacting at room temperature for 20 min, luminescence level was measured using plate reader Envision (PerkinElmer). The inhibitory activity of each compound was calculated as a relative activity value when luminescence level in wells without enzyme is considered as 100% inhibition.

In assay [2] the target is T2, HDAC9 enzyme (Homo sapiens, UniProt Q9UKV0).
T2 construct: transducing full length HDAC9 gene into Sf-9 insect cells; made in house; host or cells: Sf-9 insect cells
T2 sequence (Q9UKV0 whole entry, species assumed): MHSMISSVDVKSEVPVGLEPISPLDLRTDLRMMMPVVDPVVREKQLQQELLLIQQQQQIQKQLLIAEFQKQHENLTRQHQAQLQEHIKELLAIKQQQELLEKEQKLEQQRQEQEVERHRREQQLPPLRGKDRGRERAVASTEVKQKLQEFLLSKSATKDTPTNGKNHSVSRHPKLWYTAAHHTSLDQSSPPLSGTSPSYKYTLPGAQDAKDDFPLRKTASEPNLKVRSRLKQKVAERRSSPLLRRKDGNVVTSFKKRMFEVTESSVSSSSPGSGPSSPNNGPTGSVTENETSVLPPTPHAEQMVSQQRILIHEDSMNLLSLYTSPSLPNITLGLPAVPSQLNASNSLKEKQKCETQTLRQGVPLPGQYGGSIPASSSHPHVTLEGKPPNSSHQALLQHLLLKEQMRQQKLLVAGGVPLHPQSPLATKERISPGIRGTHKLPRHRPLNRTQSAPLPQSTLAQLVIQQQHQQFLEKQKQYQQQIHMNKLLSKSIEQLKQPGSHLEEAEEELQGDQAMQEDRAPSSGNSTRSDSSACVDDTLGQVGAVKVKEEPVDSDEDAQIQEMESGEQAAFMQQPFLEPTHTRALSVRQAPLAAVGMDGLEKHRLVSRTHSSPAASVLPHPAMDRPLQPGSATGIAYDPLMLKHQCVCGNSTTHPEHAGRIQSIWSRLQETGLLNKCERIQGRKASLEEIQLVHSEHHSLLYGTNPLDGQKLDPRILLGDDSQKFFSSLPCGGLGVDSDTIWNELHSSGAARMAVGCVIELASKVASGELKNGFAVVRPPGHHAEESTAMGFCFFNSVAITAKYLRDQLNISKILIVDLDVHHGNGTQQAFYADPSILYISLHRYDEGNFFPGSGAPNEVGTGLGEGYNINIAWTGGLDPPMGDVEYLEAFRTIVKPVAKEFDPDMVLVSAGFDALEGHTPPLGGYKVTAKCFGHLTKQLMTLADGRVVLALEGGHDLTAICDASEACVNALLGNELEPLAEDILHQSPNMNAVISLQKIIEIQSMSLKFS
Description: HDAC9 enzyme inhibitory assay (HDAC-Glo class IIa). The settings on record: 1 μM test compound; wells without enzyme = 100% inhibition; read-out: HDAC9 inhibitory rate (%) (1 μM). The procedure:
HDAC9 Enzyme Inhibitory Assay
Enzyme was prepared by transducing full length HDAC9 gene into Sf-9 insect cells and purifying by Ni-NTA affinity column, and HDAC9 enzyme inhibitory activity was evaluated. Enzymes were used after preserved at −70° C. HDAC9 enzyme inhibitory activity of the test compound was measured using HDAC-Glo class IIa (Promega) according to the following experimental method. The test compound diluted with assay buffer (24 mM Tris-HCl (pH 7.5), 1 mM MgCl2, 0.35 mM KCl, 135 mM NaCl, 0.6 mM Glutathione, 0.01% Tween-20) was added to a 384-well plate by each 2 μL. Then, HDAC9 enzyme solution diluted with assay buffer was added thereto by each 2 μL, and the plate was incubated at room temperature for 60 min. After incubated, HDAC substrate-Developer solution prepared according to Promega protocol was added to the 384-well plate by each 4 μL, and the enzyme reaction was started. After reacting at room temperature for 20 min, luminescence level was measured using plate reader Envision (PerkinElmer). The inhibitory activity of each compound was calculated as a relative activity value when luminescence level in wells without enzyme is considered as 100% inhibition.

Assay [3] deals with T3, HDAC1 enzyme (Homo sapiens, UniProt Q13547).
T3 construct: transducing full length HDAC1 and HDAC6 genes into Sf-9 insect cells; GST; purchased SignalChem; host or cells: Sf-9 insect cells
T3 sequence (Q13547 whole entry): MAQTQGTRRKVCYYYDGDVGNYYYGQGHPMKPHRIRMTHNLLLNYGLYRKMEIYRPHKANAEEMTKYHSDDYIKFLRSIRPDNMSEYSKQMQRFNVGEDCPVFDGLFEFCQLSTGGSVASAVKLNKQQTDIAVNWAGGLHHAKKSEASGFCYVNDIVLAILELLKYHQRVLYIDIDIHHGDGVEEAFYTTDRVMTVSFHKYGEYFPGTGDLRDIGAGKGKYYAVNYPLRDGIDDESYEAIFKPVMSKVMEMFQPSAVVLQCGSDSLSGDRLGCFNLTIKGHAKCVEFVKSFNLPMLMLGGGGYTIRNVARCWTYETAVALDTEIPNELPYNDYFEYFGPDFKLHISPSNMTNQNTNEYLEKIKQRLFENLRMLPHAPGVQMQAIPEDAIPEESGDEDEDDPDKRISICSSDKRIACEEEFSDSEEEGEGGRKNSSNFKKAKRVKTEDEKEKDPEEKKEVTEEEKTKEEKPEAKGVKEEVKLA
Description: HDAC1 enzyme inhibitory assay (HDAC-Glo I/II Assay kit). The settings on record: 1 μM test compound; wells without enzyme = 100% inhibition; read-out: HDAC1 inhibitory rate (%) (1 μM). The procedure:
as §1, §2

The structures appear in SMILES notation.

Regarding `C[C@H](c1ccccc1)N1Cc2ncc(-c3noc(C(F)(F)F)n3)cc2C1=O` [Example 39, 6-((1R)-1-phenylethyl)-3-(5-(trifluoromethyl)-1,2,4-oxadiazol-3-yl)-6,7-dihydro-5H-pyrrolo[3,4-b]pyridin-5-one], the inhibition at 1 µM was found to be 99% in assay [1], 90% in assay [2] and 55% in assay [3].

Consider `C[C@@H](c1cccc2ccccc12)N1Cc2ccc(-c3noc(C(F)(F)F)n3)cc2C1=O` [Example 22, 2-((1S)-1-(1-naphthyl)ethyl)-6-(5-(trifluoromethyl)-1,2,4-oxadiazol-3-yl)isoindolin-1-one], for which the inhibition at 1 µM came to 92% in assay [1], 82% in assay [2] and 3% in assay [3].

As for `O=C1c2cc(-c3noc(C(F)(F)F)n3)ccc2CN1Cc1c(F)cccc1F` [Example 27, 2-(2,6-difluorobenzyl)-6-(5-(trifluoromethyl)-1,2,4-oxadiazol-3-yl)isoindolin-1-one], the inhibition at 1 µM in assay [1] was found to be 96%; in assay [2], 76%; in assay [3], 21%.

Turning to `O=C1c2cc(-c3noc(C(F)(F)F)n3)cnc2CN1Cc1cccnc1` [Example 4, 6-(pyridin-3-ylmethyl)-3-(5-(trifluoromethyl)-1,2,4-oxadiazol-3-yl)-6,7-dihydro-5H-pyrrolo[3,4-b]pyridin-5-one], the inhibition at 1 µM in assay [1] came to 93%; in assay [2] it was 93%; in assay [3] it was 43%.

With `COc1cc(F)ccc1[C@H](C)N1Cc2ccc(-c3noc(C(F)(F)F)n3)cc2C1=O` [Example 20, 2-((S)-1-(4-fluoro-2-methoxyphenyl)ethyl)-6-(5-(trifluoromethyl)-1,2,4-oxadiazol-yl)isoindolin-1-one], the inhibition at 1 µM was 95% in assay [1], 66% in assay [2] and 16% in assay [3].

As to `C[C@@H](c1ccc(Cl)cc1)N1Cc2ccc(-c3noc(C(F)(F)F)n3)cc2C1=O` [Example 14, 2-((1S)-1-(4-chlorophenyl)ethyl)-6-(5-(trifluoromethyl)-1,2,4-oxadiazol-3-yl)isoindolin-1-one], the inhibition at 1 µM in assay [1] worked out at 88%; in assay [2], 76%; in assay [3], 9%.

As for `C[C@@H](c1ccccc1F)N1Cc2ccc(-c3noc(C(F)(F)F)n3)cc2C1=O` [Example 15, 2-((1S)-1-(2-fluorophenyl)ethyl)-6-(5-(trifluoromethy)-1,2,4-oxadiazol-3-yl)isoindolin-1-one], the inhibition at 1 µM in assay [1] worked out at 95%; in assay [2] it was 79%; in assay [3], 15%.

In the case of `CN(c1ncccc1CN1Cc2ccc(-c3noc(C(F)(F)F)n3)cc2C1=O)S(C)(=O)=O` [Example 35, N-methyl-N-(3-((1-oxo-6-(5-(trifluoromethyl)-1,2,4-oxadiazol-3-yl)-1,3-dihydro-2H-isoindol-2-yl)methyl)pyridin-2-yl)methanesulfonamide], the inhibition at 1 µM in assay [1] turned out to be 97%; in assay [2], 61%; in assay [3] it was 6%.

Regarding `Cc1cc(CN2Cc3ccc(-c4noc(C(F)(F)F)n4)cc3C2=O)nn1C` [Example 38, 2-((1,5-dimethyl-1H-pyrazol-3-yl)methyl)-6-(5-(trifluoromethyl)-1,2,4-oxadiazol-3-yl)isoindolin-1-one], the inhibition at 1 µM in assay [1] was found to be 97%; in assay [2], 85%; in assay [3], 23%.

As to `C[C@@H](c1cccc(F)c1)N1Cc2ccc(-c3noc(C(F)(F)F)n3)cc2C1=O` [Example 16, 2-((1S)-1-(3-fluorophenyl)ethyl)-6-(5-(trifluoromethyl)-1,2,4-oxadiazol-3-yl)isoindolin-1-one], the results for the inhibition at 1 µM in assay [1], in assay [2] and in assay [3] were 95%, 85% and 20%, respectively.

Consider `C[C@@H](c1ccccc1)N1Cc2ncc(-c3noc(C(F)(F)F)n3)cc2C1=O` [Example 40, 6-((1S)-1-phenylethyl)-3-(5-(trifluoromethyl)-1,2,4-oxadiazol-3-yl)-6,7-dihydro-5H-pyrrolo[3,4-b]pyridin-5-one], for which the inhibition at 1 µM is 97% in assay [1], 93% in assay [2] and 52% in assay [3].

For the molecule `O=C1c2cc(-c3noc(C(F)(F)F)n3)ccc2CN1Cc1nccs1` [Example 36, 2-(1,3-thiazol-2-ylmethyl)-6-(5-(trifluoromethyl)-1,2,4-oxadiazol-3-yl)isoindolin-1-one], the inhibition at 1 µM in assay [1] is 98%; in assay [2] it was 81%; in assay [3], 15%.

On to `C[C@@H](c1ccccc1)N1Cc2ccc(-c3noc(C(F)(F)F)n3)cc2C1=O` [Example 8, 2-((1S)-1-phenylethyl)-6-(5-(trifluoromethyl)-1,2,4-oxadiazol-3-yl)isoindolin-1-one], for which the inhibition at 1 µM turned out to be 99% in assay [1], 87% in assay [2] and 19% in assay [3].

As for `O=C1c2cc(-c3noc(C(F)(F)F)n3)ccc2CN1Cc1ccccc1OC(F)(F)F` [Example 26, 2-(2-(trifluoromethoxy)benzyl)-6-(5-(trifluoromethyl)-1,2,4-oxadiazol-3-yl)isoindolin-1-one], the inhibition at 1 µM came out at 95% in assay [1], 58% in assay [2] and 8% in assay [3].

`CC(c1cccnc1)N1Cc2ncc(-c3noc(C(F)(F)F)n3)cc2C1=O` (stereo not drawn) [Example 5, 6-(1-(pyridin-3-yl)ethyl)-3-(5-(trifluoromethyl)-1,2,4-oxadiazol-3-yl)-6,7-dihydro-5H-pyrrolo[3,4-b]pyridin-5-one]: the inhibition at 1 µM amounted to 97% in assay [1], 93% in assay [2] and 43% in assay [3].

`COc1cccc(CN2Cc3ccc(-c4noc(C(F)(F)F)n4)cc3C2=O)c1` [Example 9, 2-(3-methoxybenzyl)-6-(5-(trifluoromethyl)-1,2,4-oxadiazol-3-yl)isoindolin-1-one]: the inhibition at 1 µM was determined as 98% in assay [1], 81% in assay [2] and 31% in assay [3].
